Reference: US11739074B2, “Ras inhibitors” (Revolution Medicines, Inc., priority 2019, dated 2023)
Like-named read-outs stand apart in the source and are kept apart here.

Experiments:
Format in all cases: cell-based
AsPC-1 (K-Ras G12D) [1] = test: Potency assay: pERK in AsPC-1 cells; settings: Homo sapiens
AsPC-1 (K-Ras G12D) [2] = test: CellTiter-Glo cell viability assay, AsPC-1; settings: Homo sapiens, ASPC1, 120 h
In short: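 Viability is scored by CellTiter-Glo luminescence on day 5 of compound treatment, relative to vehicle (DMSO) wells set as 100%, with a four-parameter logistic fit.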

NCI-H358 (K-Ras G12C) = test: CellTiter-Glo cell viability assay, H358; settings: Homo sapiens, NCI-H358, 120 h
Procedure: Determination of Cell Viability in RAS Mutant Cancer Cell Lines
Protocol: CellTiter-Glo® Cell Viability Assay
Note—The following protocol describes a procedure for monitoring cell viability of K-Ras mutant cancer cell lines in response to a compound of the invention. Other RAS isoforms may be employed, though the number of cells to be seeded will vary based on cell line used.
Test compounds (132.5 nL) were directly dispensed into the assay plates containing cells. […] On day 5, assay plates and their contents were equilibrated to room temperature for approximately 30 minutes. […] Luminescence was measured using the PerkinElmer Enspire. Data were normalized by the following: (Sample signal/Avg. DMSO)*100. The data were fit using a four-parameter logistic fit.

[3] = ASPC1, AsPC-1 cells, K-Ras G12D, read-out: pERK EC50 (AsPC-1 KRAS G12D)
[4] = AsPC-1, K-Ras G12D, 5-day treatment, read-out: AsPC-1 Cell Viability IC50
[5] = NCI-H358, K-Ras G12C, 5-day treatment, read-out: H358 Cell Viability IC50

In the case of CCn1c(-c2cccnc2[C@H](C)OC)c2c3cc(ccc31)-c1cc(O)cc(c1)C[C@H](NC(=O)[C@H](C(C)C)N(C)C(=O)CN(C)C(=O)[C@H]1CN1CCCOC)C(=O)N1CCC[C@H](N1)C(=O)OCC(C)(C)C2 (stereo partly drawn) [Compound 201], the EC50 (AsPC-1 (K-Ras G12D) [1]; ASPC1, read-out: pERK EC50 (AsPC-1 KRAS G12D)) is reported as < 5 µM, the IC50 (AsPC-1 (K-Ras G12D) [2]; read-out: AsPC-1 Cell Viability IC50, AsPC-1, K-Ras G12D, 5-day treatment) is reported as 0.1 to 1 µM and the IC50 (NCI-H358 (K-Ras G12C); read-out: H358 Cell Viability IC50, NCI-H358, K-Ras G12C, 5-day treatment) is reported as < 0.01 µM.
In the case of CCn1c(-c2cccnc2[C@H](C)OC)c2c3cc(ccc31)-c1cc(O)cc(c1)C[C@H](NC(=O)[C@H](C(C)C)N(C)C(=O)C13CCC(CC1)N3C(=O)[C@H]1CN1)C(=O)N1CCC[C@H](N1)C(=O)OCC(C)(C)C2 [Compound 202], the EC50 (AsPC-1 (K-Ras G12D) [1]; [3]) is reported as < 5 µM, the IC50 (AsPC-1 (K-Ras G12D) [2]; [4]) is reported as 1 to 10 µM and the IC50 (NCI-H358 (K-Ras G12C); [5]) is reported as 0.1 to 1 µM.
With CCn1c(-c2cccnc2[C@H](C)OC)c2c3cc(ccc31)-c1cc(O)cc(c1)C[C@H](NC(=O)[C@H](C(C)C)N(C)C(=O)[C@@H]1CCN(C(=O)[C@H]3CN3)[C@@H]1C)C(=O)N1CCC[C@H](N1)C(=O)OCC(C)(C)C2 [Compound 207] the EC50 (AsPC-1 (K-Ras G12D) [1]; [3]) was < 5 µM, the IC50 (AsPC-1 (K-Ras G12D) [2]; [4]) was 0.1 to 1 µM and the IC50 (NCI-H358 (K-Ras G12C); [5]) was < 0.01 µM.
For CCn1c(-c2cccnc2[C@H](C)OC)c2c3cc(ccc31)-c1cc(O)cc(c1)C[C@H](NC(=O)[C@H](C(C)C)N(C)C(=O)[C@@H]1CCN(C(=O)[C@@H]3CN3)[C@@H]1C)C(=O)N1CCC[C@H](N1)C(=O)OCC(C)(C)C2 [Compound 208], the EC50 (AsPC-1 (K-Ras G12D) [1]; [3]) was < 5 µM, the IC50 (AsPC-1 (K-Ras G12D) [2]; [4]) was 1 to 10 µM and the IC50 (NCI-H358 (K-Ras G12C); [5]) was 0.01 to 0.1 µM.
For CCn1c(-c2cccnc2[C@H](C)OC)c2c3cc(ccc31)-c1csc(n1)C[C@H](NC(=O)[C@H](C1CCCC1)N(C)C(=O)CN(C)C(=O)[C@@H]1N[C@@H]1C1CC1)C(=O)N1CCC[C@H](N1)C(=O)OCC(C)(C)C2 [Compound 210], the EC50 (AsPC-1 (K-Ras G12D) [1]; [3]) was < 5 µM, the IC50 (AsPC-1 (K-Ras G12D) [2]; [4]) was 0.1 to 1 µM and the IC50 (NCI-H358 (K-Ras G12C); [5]) was 0.1 to 1 µM.
For CCn1c(-c2cccnc2[C@H](C)OC)c2c3cc(ccc31)-c1csc(n1)C[C@H](NC(=O)[C@H](C(C)C)N(C)C(=O)N(C)CCN(C)C(=O)[C@H]1CN1)C(=O)N1CCC[C@H](N1)C(=O)OCC(C)(C)C2 [Compound 216], the EC50 (AsPC-1 (K-Ras G12D) [1]; [3]) was < 5 µM, the IC50 (AsPC-1 (K-Ras G12D) [2]; [4]) was 0.1 to 1 µM and the IC50 (NCI-H358 (K-Ras G12C); [5]) was 0.01 to 0.1 µM.
CCn1c(-c2cccnc2[C@H](C)OC)c2c3cc(ccc31)-c1csc(n1)C[C@H](NC(=O)[C@H](C(C)C)N(C)C(=O)N(C)CCN(C)C(=O)[C@@H]1CN1)C(=O)N1CCC[C@H](N1)C(=O)OCC(C)(C)C2 [Compound 217] was tested, and the EC50 (AsPC-1 (K-Ras G12D) [1]; [3]) was < 5 µM, the IC50 (AsPC-1 (K-Ras G12D) [2]; [4]) was 0.1 to 1 µM and the IC50 (NCI-H358 (K-Ras G12C); [5]) was 0.01 to 0.1 µM.
For CCn1c(-c2cccnc2[C@H](C)OC)c2c3cc(ccc31)-c1csc(n1)C[C@H](NC(=O)[C@H](C(C)C)N(C)C(=O)N1CCCN(C(=O)[C@H]3CN3)CC1)C(=O)N1CCC[C@H](N1)C(=O)OCC(C)(C)C2 [Compound 222], the EC50 (AsPC-1 (K-Ras G12D) [1]; [3]) was < 5 µM, the IC50 (AsPC-1 (K-Ras G12D) [2]; [4]) was 0.1 to 1 µM and the IC50 (NCI-H358 (K-Ras G12C); [5]) was < 0.01 µM.
In the case of CCn1c(-c2cccnc2[C@H](C)OC)c2c3cc(ccc31)-c1csc(n1)C[C@H](NC(=O)[C@H](C(C)C)N(C)C(=O)N1CCCN(C(=O)[C@@H]3CN3)CC1)C(=O)N1CCC[C@H](N1)C(=O)OCC(C)(C)C2 [Compound 223], the EC50 (AsPC-1 (K-Ras G12D) [1]; [3]) is reported as < 5 µM, the IC50 (AsPC-1 (K-Ras G12D) [2]; [4]) is reported as 0.1 to 1 µM and the IC50 (NCI-H358 (K-Ras G12C); [5]) is reported as 0.01 to 0.1 µM.
For CCn1c(-c2cccnc2[C@H](C)OC)c2c3cc(ccc31)-c1csc(n1)C[C@H](NC(=O)[C@H](C(C)C)N(C)C(=O)N1CC(CN(C)C(=O)[C@H]3CN3)C1)C(=O)N1CCC[C@H](N1)C(=O)OCC(C)(C)C2 [Compound 224], the EC50 (AsPC-1 (K-Ras G12D) [1]; [3]) was < 5 µM, the IC50 (AsPC-1 (K-Ras G12D) [2]; [4]) was 0.1 to 1 µM and the IC50 (NCI-H358 (K-Ras G12C); [5]) was 0.01 to 0.1 µM.
In the case of CCn1c(-c2cccnc2[C@H](C)OC)c2c3cc(ccc31)-c1csc(n1)C[C@H](NC(=O)[C@H](C(C)C)N(C)C(=O)N1CC(CN(C)C(=O)[C@@H]3CN3)C1)C(=O)N1CCC[C@H](N1)C(=O)OCC(C)(C)C2 [Compound 225], the EC50 (AsPC-1 (K-Ras G12D) [1]; [3]) is reported as < 5 µM, the IC50 (AsPC-1 (K-Ras G12D) [2]; [4]) is reported as 0.1 to 1 µM and the IC50 (NCI-H358 (K-Ras G12C); [5]) is reported as 0.01 to 0.1 µM.
For CCn1c(-c2cccnc2[C@H](C)OC)c2c3cc(ccc31)-c1csc(n1)C[C@H](NC(=O)[C@H](C(C)C)N(C)C(=O)N1CC[C@@H](N(C)C(=O)[C@H]3CN3)C1)C(=O)N1CCC[C@H](N1)C(=O)OCC(C)(C)C2 [Compound 226], the EC50 (AsPC-1 (K-Ras G12D) [1]; [3]) was < 5 µM, the IC50 (AsPC-1 (K-Ras G12D) [2]; [4]) was 1 to 10 µM and the IC50 (NCI-H358 (K-Ras G12C); [5]) was 0.01 to 0.1 µM.
